# Results: a melting point compilation (Tetko et al.)
row,SMILES,melting point [°C]
1,CC(C)(C)OC(=O)N[C@@H]1CCCCC[C@H]1N,72 to 74
2,NC(CC(=O)O)c1cc(Cl)cc(Cl)c1 (configuration not stated),205 to 207
3,CC(C)c1noc(-c2ccnc(Cl)c2)n1,35 to 37
4,O=C(NCCO)c1cncc(Br)c1,128 to 130
5,Nc1cc(CSCCO)ccn1,90 to 92
6,CC(=O)CN1C(=O)COCC1=O,77 to 79
7,NCc1cc2sccc2s1,58 to 60
8,NNC(=O)c1cccc(S(=O)(=O)Nc2ccc(Cl)cc2)c1,191 to 193
9,CN(CC#N)C(=O)c1ccccc1,73 to 75
10,Nc1cc(C(F)(F)F)c[nH]c1=O,96 to 98
11,CSc1nnnn1-c1cccc(N)c1,113 to 115
12,N#CSCC(=O)c1ccccc1Cl,56 to 58
13,O=C(c1ccc(Br)o1)N1CCNCC1,118 to 120
14,NS(=O)(=O)c1ccc(Cl)cc1F,104 to 106
15,Cn1c(C=O)nc2c1c(=O)[nH]c(=O)n2C,284 to 286
16,O=Cc1ccc(-c2ccccc2[N+](=O)[O-])s1,112 to 114
17,O=Cc1cn(-c2ccccc2)nc1-c1ccc(Br)cc1,141 to 143
18,O=c1[nH]ccs1,55 to 57
19,Nc1ccc(-c2cc[nH]c2)cc1,99 to 101
20,O=C1CCCN1Cc1nnc(S)o1,172 to 174
21,CS(=O)(=O)NC1CCC(O)CC1 (configuration not stated),149 to 151
22,O=C(O)CCN1C(=O)c2ccccc2S1(=O)=O,164 to 166
23,Cc1ccc(-c2cc(C(=O)O)on2)cc1,204 to 206
24,N#Cc1ccc(NCCO)cc1,84 to 86
25,CCn1c(S)nnc1-c1ccc(C(C)(C)C)cc1,130 to 132

row,SMILES,melting point [°C]
1,CC(Cc1ccc(Cl)cc1)NC(=O)OC(C)(C)C (configuration not stated),93 to 95
2,COc1ccc(Cn2nccc2N)cc1OC,< 17
3,COc1ccccc1-c1ccc(C(C)=O)cc1,107 to 109
4,COc1cc(CCl)cc(Br)c1OC,60 to 62
5,O=C(O)C=Cc1cccc(OC2CCCCC2)c1,96 to 98
6,CC(C)(C)OC(=O)NC(C(=O)O)c1cccc(Cl)c1 (configuration not stated),128 to 130
7,O=C(O)CCc1ccc(Cl)s1,50 to 52
8,Cc1ccc(-c2nnc(CCC(=O)O)o2)cc1,169 to 171
9,CC(C)(C)OC(=O)N1CCC(N2CCCC2C(=O)O)CC1 (configuration not stated),169 to 171
10,COC(=O)C(Cl)c1cc(Cl)cc(Cl)c1 (configuration not stated),56 to 58
11,Cc1cc(NC(=O)CCl)n(C)n1,115 to 117
12,CC(C)(C)c1nn(-c2ccccc2Cl)cc1C=O,111 to 113
13,CCCc1cnc(N)s1,43 to 45
14,CCOCCOc1c(N)cccc1Cl,65 to 67
15,O=C(NO)c1cccs1,124 to 126
16,CCOC(=O)c1c[nH]cc(C)c1=O,225 to 227
17,COc1ccc(CCNC(=O)c2ccccc2N)cc1,80 to 82
18,Cc1ccc(SCCNC(=O)CCl)cc1,114 to 116
19,O=C(O)c1nccnc1C(=O)Nc1ccc(Cl)cc1,178 to 180
20,CSCCC(NC(=O)Cc1ccccc1)C(=O)O (configuration not stated),101 to 103
21,NC(=O)c1ccc(N)cc1N1CCCCC1,142 to 144
22,CNc1cc(-c2ccccc2)[nH]n1,122 to 124
23,Oc1ccccc1CNc1ccc(F)cc1,103 to 105
24,CC(C)Cc1ccc(C(=O)c2cccs2)cc1,112 to 114
25,Cc1cc(NS(=O)(=O)c2cccc(C#N)c2)no1,159 to 161

row,SMILES,melting point [°C]
1,O=C(O)c1ccc(CSc2ccccc2)cc1,179 to 181
2,O=C(O)CN1CCCC1CO (configuration not stated),146 to 148
3,O=C(O)C=Cc1cccc(CO)c1,129 to 131
4,O=C(O)CCCC(=O)c1ccc(Cl)c(Cl)c1,140 to 142
5,Cc1cc(Br)cc2cc(C#N)oc12,139 to 141
6,CCNc1nnc(C)c2ccccc12,135 to 137
7,Cn1cc(C(=O)O)c(=O)c2cc(Cl)ccc21,302 to 304
8,O=C(O)CCS(=O)c1ccc2c(c1)OCCCO2 (configuration not stated),114 to 116
9,Nc1ccc(CN2CCCC2=O)cc1,124 to 126
10,CCc1ccccc1Nc1nc(N)nc(CCl)n1,146 to 149
11,CCCc1cc(=O)c2cc(Oc3ccccc3)ccc2[nH]1,207 to 209
12,CS(=O)(=O)C1CCCCC1=O (configuration not stated),69 to 71
13,Cc1cc(C(=O)O)c2ccc(Br)cc2n1,289 to 291
14,CC(=O)CC(=O)Nc1ccc(F)c(F)c1,92 to 94
15,CC(Cl)C(=O)N1CC(=O)Nc2ccccc21 (configuration not stated),139 to 141
16,CC(C)(C)OC(=O)NCC1CCCCC1O (configuration not stated),57 to 59
17,Cc1nn(C)c(SCC(=O)O)c1C=O,126 to 128
18,CC(C)CNCC(=O)O,198 to 200
19,Cc1cccc(NS(=O)(=O)c2ccc(N)cc2)n1,223 to 225
20,CCC1CSC(Nc2ccc(Cl)c(Cl)c2)=N1 (configuration not stated),107 to 109
21,O=C(CCl)Nc1nc2ccc(F)cc2s1,170 to 172
22,CCNCc1cccc(NC(=O)c2cc(Cl)c[nH]2)c1,126 to 128
23,O=C(O)CCS(=O)(=O)c1ccc2c(c1)OCCO2,154 to 156
24,O=[N+]([O-])c1cccc(C(F)F)c1Br,29 to 31
25,NC(=NO)c1cccc([N+](=O)[O-])c1,182 to 184

row,SMILES,melting point [°C]
1,Cc1cc(C)c2cc(C(=O)O)sc2n1,198 to 200
2,ClCc1nnc(-c2ccco2)o1,81 to 83
3,Clc1ccc2nnc(C3CC3)n2n1,117 to 119
4,O=C(O)c1cc(OC(F)F)cc(OC(F)F)c1,79 to 81
5,NC(=O)c1cnc(Cl)c(Cl)c1,204 to 206
6,Nc1ccc(Br)cc1-c1nc(C2CC2)no1,123 to 125
7,Cn1cc(C(=O)O)c(-c2ccc(N)cc2)n1,226 to 228
8,O=C1C=CC(=O)N1CCO,59 to 61
9,O=C(O)c1ccc(Oc2ccc(F)cc2[N+](=O)[O-])cc1,179 to 181
10,Nc1cc(F)c(F)cc1[N+](=O)[O-],107 to 108
11,COc1ccc(S(=O)(=O)N2CCN(C)CC2)cc1N,107 to 109
12,O=C1c2ccccc2C(=O)N1C1CCC(O)CC1 (configuration not stated),174 to 176
13,Fc1ccc(COc2cccc(N3CCNCC3)c2)cc1,84 to 86
14,Nc1ccc(-c2nc3ccccc3o2)cc1,170 to 172
15,NNC(=S)NC1CCCC1,76 to 78
16,COC(=O)c1nc2ncc3c(n2n1)C(=O)OCC3,197 to 199
17,O=C(NC1CCCNC1)c1ccccc1 (configuration not stated),130 to 132
18,O=C(Cc1nc2ccccc2n1C(F)F)c1cccs1,123 to 125
19,O=c1[nH]c(S)nc2sccc12,315 to 317
20,NC(=O)C(F)(F)c1ccccc1,116 to 118
21,CN1CC(=O)N(Cc2ccc(C(N)=O)cc2[N+](=O)[O-])C1=O,219 to 221
22,COc1ccc(C)cc1-n1nnnc1S,164 to 166
23,O=C(O)c1ccc(S(=O)(=O)N2CCCCC2)cc1,270 to 272
24,O=C(O)CCCOc1ccc(Br)cc1,130 to 132
25,CCCN1C(=O)NC(=O)C1=O,105 to 107

row,SMILES,melting point [°C]
1,NNc1nc(Cl)c(Cl)cc1Cl,161 to 163
2,O=C(O)c1cnc2ccsc2c1,259 to 261
3,Cc1cccc(-n2nnc(C(=O)O)c2C)c1,157 to 159
4,Cc1ccc(-c2nc(N)sc2CN(C)C)cc1,175 to 177
5,N#CCc1ccc(F)c(Br)c1,35 to 37
6,Cc1cc(C)c(NC(=O)CCl)c(C)c1,153 to 157
7,CCOC(=O)c1c(C)oc(N)c1C#N,98 to 100
8,O=C(O)C(=Cc1ccco1)NC(=O)c1ccccc1,209 to 211
9,CC(O)c1nc2cc(Cl)ccc2s1 (configuration not stated),109 to 111
10,Brc1ncc(-c2ccccc2)s1,55 to 57
11,C#CCNC(=O)Nc1cc(C)on1,163 to 165
12,Cc1cc(F)ccc1S(=O)(=O)Nc1ccc(C(=O)O)cc1,199 to 201
13,ClCc1nc(-c2nc[nH]n2)no1,187 to 189
14,OCc1nc2cccnc2[nH]1,210 to 212
15,O=c1[nH]cnc2scc(-c3ccc(F)cc3)c12,231 to 233
16,Cn1c(CCl)nc2c1c(=O)[nH]c(=O)n2C,269 to 271
17,Cc1ccc2c(C3=CCNCC3)c[nH]c2c1,178 to 180
18,Cc1cc(C=O)c(C)n1-c1nccs1,43 to 45
19,CC1Oc2ccc(Cl)cc2NC1=O (configuration not stated),171 to 173
20,CC1(C)CCC(N)(C(N)=O)CC1,149 to 151
21,CCCOc1ccc(Br)cc1C=O,47 to 49
22,O=C(O)c1cc(-c2ccncc2)nc2ccccc12,308 to 310
23,Cc1cnc2c(c1)NCCN2,127 to 129
24,COc1ccc(OCCCC(=O)O)cc1,101 to 105
25,NC(=O)C1CCCN1Cc1ccccc1N (configuration not stated),121 to 123

row,SMILES,melting point [°C]
1,NC1(C(=O)O)CCOCC1,268 to 270
2,CC(Oc1ccc2c(c1)CCC2)C(=O)O (configuration not stated),103 to 105
3,CC(=O)OCC(N)=S,75 to 77
4,Nc1nonc1-c1ccccn1,124 to 126
5,Cc1cc(N)c2cccnc2c1C,124 to 126
6,CCSc1ccc(CC(=O)O)cc1,74 to 76
7,Nc1cncnc1N1CCCC1,156 to 158
8,Cc1c(C(=O)O)oc2ccc(Br)cc12,249 to 251
9,COC(=O)C(C)(O)c1ccncc1 (configuration not stated),104 to 106
10,Cc1ncc(C(=O)O)c(Br)c1Cl,129 to 131
11,Cc1nn(Cc2ccc(Cl)cc2)c2sc(C(=O)O)cc12,245 to 247
12,O=C1CC2(CCOC2)CN1 (configuration not stated),63 to 65
13,O=C(NC=C(Cl)Cl)c1ccc(F)cc1,69 to 71
14,Fc1ccc(-c2cc(CBr)on2)cc1,74 to 76
15,O=C(c1ccsc1)N1CCNCC1,235 to 237
16,COC(=O)c1ccc(S(=O)(=O)Cl)c(Cl)c1,64 to 66
17,Nc1c(F)cccc1-n1cncn1,103 to 105
18,O=C1C2CC1CN(Cc1ccccc1)C2,64 to 66
19,CC(=O)c1csc(-c2csc(C)n2)c1,125 to 127
20,Cc1ccccc1-c1cc(N)[nH]n1,168 to 170
21,Cc1ccccc1C1(C)NC(=O)NC1=O (configuration not stated),169 to 171
22,O=C(O)Cn1nc(-c2cccs2)oc1=O,176 to 178
